# Laboratory results: patent US20260120814A1, “SYSTEMS, METHODS, AND DEVICES FOR PREDICTING PHARMACOKINETIC INFLUENCES ON KETOGENESIS FOLLOWING ADMINISTRATION OF TRICAPRILIN” (CERECIN INC., priority 2022, published 2026)
# Key:
# [1] = Phase I clinical pharmacokinetic study of AC-SD-03; type: in vivo, healthy male (Caucasian and Chinese) volunteers; settings: human
# Procedure: A clinical pharmacokinetic study can be conducted (e.g., to generate the model inputs 106) with the MCT formulation. For example, a clinical pharmacokinetic study was conducted on the tricaprilin product AC-SD-03, approved by the local Institutional Review Board and carried out in compliance with the Good Clinical Practice guidelines of the International Conference of Harmonization (ICH-GCP). It was an open-label, randomized 2-way crossover study. Twenty healthy male (Caucasian and Chinese) volunteers in an age range of 18-50 years were enrolled. All subjects had undergone a supervised overnight fast of at least 8 h until 1 h before their scheduled morning dose. The breakfast consisting of 2 pieces of toast with butter, 2 strips of bacon, 2 scrambled eggs, 113 g of hash browns, and 240 mL of whole milk was standardized for all subjects. […] An additional 60 ml of water was used to rinse the dosing cup and administered to the subjects. Water was only restricted 1 h before and 1 h after drug administration, but was allowed ad libitum at all other times. Food and other fluid intake was restricted throughout the confinement period. Upon peroral administration of a single dose of the formulation, the blood tricaprilin, octanoic acid, and ketone body concentrations were quantified. For tricaprilin, blood samples were collected at 0, 1.5, 2.0, 2.5, and 8 h. […]
# [2] = Estimated absorption of undigested tricaprilin into blood circulation; settings: during the first 4 hours
# Procedure: As a next step, the digestion of the MCT formulation (such as AC-SD-03) in vitro can be measured. The formulation can be exposed to a gastric medium followed by lipolysis in a medium simulating intestinal conditions. The latter can result in the liberation of fatty acids expressed as the percentage of digested free fatty acid (e.g., tricaprilin), as shown at the graph 306. For each mole of tricaprilin, three moles of titratable fatty acids can be released. Within the first 5 min, 40±3% of tricaprilin can be converted to octanoic acid, followed by a gradual reduction in the digestion rate. After 15 min, the digestion profile plateaued at 83±4%. Assuming rapid absorption from the intestine, the digestion rate (kd) and extent (F) of lipolysis are mainly responsible for the bioavailability of octanoic acid. […] On a side note, there can be a certain probability that undigested tricaprilin can be absorbed into blood circulation as well. However, one estimated rate can be […] for this process. This corresponds to less than 0.5% of the total dose during the first 4 hours. […] Metabolic processes such as the hepatic conversion of tricaprilin would generally result in the formation of octanoic acid, subsequently converted to ketone bodies.
# [3] = PBB model population parameters fitted to the phase I clinical trial; set-up: species or system humans; settings: population parameter, after peroral AC-SD-03
# Text: In some scenarios the PBB model 102 can be written in the Mixtran programming language and executed using Monolix 2020R1 (e.g., Antony, France). The initial parameters and fixed-parameter ranges (e.g., such as those shown in Table 1 and/or the model inputs 106) can be obtained (e.g., from experimentation data and/or literature data).
# In the following, population parameters can be obtained for the target population treated with a MCT formulation (e.g., AC-SD-03) using the Stochastic Approximation Expectation-Maximization (SAEM) algorithm. The population parameters can be considered to be log-normally distributed. Additionally, the estimation tasks of the empirical Bayes estimates (EBEs) and the conditional distribution can be performed to calculate the individual predictions and give the uncertainty of the individual parameters and the data for each individual, respectively. The individual clinical data 124 for the free fatty acid (e.g., octanoic acid) and ketones obtained from the pharmacokinetic study can be used for model validation. For instance, the accuracy of the prediction can be assessed by calculating the relative mean absolute prediction error (MAPE, %) using the following equation: […]
# In some scenarios, considering that all population parameters can be within the initial ranges and prediction errors can remain at a low level, initial values (Table 1) can provide an estimate of the physiological and formulation-related influences. This leads to the following conclusions. Once tricaprilin reaches the small intestine, with a rate of 1.7 h^1, the absorption of fatty acids can become the rate-limiting step. Also, there can be more significant fluctuations in the absorption rate between different individuals as compared to the much faster lipolysis (4.6 h-1) and ketogenesis (2.6 h^1). The conversion of octanoic acid in the liver can play a minor role in the availability of the active form of tricaprilin. […] These observations can be systematically evaluated in the PPSA, and/or can be provided to the PBB model 102 as model inputs 106 or as part of a validation process.
# [4] = cited from earlier work
# [5] = set-up: species or system humans; settings: human, in vivo
# Text: To estimate the parameters involved in the distribution, metabolism, and elimination of the free fatty acid (such as octanoic acid), reliable data sources can be identified for generating a training data set to describe plasma pharmacokinetics after intravenous administration of either free fatty acids (such as octanoic acid) or ketones. Pharmacokinetic data 120 related to the MCT (such as tricaprilin) and its metabolites in humans, which can be included in the training data 122 and/or used by a validation system 124 of the biopharmaceutics modeling system, is summarized in Table 2:
# In some examples, ketone plasma concentration can be quantified following an intravenous bolus injection of sodium acetoacetate (n=12). Acetoacetate and D-f3-hydroxybutyrate (n=6), two main components of plasma ketones, can also be quantified upon intravenous infusion of D-f3-hydroxybutyrate at three different doses. Blood free fatty acid (such as octanoic acid) concentration can be measured upon peroral administration of the free fatty acid (e.g, octanoic acid) at five different doses to a patient population (n=3 per dose). This pharmacokinetic data 120 can be analyzed using PKanalix 2020R1 (e.g., Lixoft, Antony, France). These injections, infusions, and/or consumptions of the doses by a target patient can be provided to the PBB model 102 (e.g., as the patient data 105). […]
"tricaprilin found in blood circulation ([1]; phase I clinical trial, peroral AC-SD-03)","Cmax ([1]; male, blood, oral, 50 g AC-SD-03 (42,500 μmol tricaprilin), read-out: Cmax of undigested triglyceride) [nM]",fraction of total dose absorbed as undigested tricaprilin [2],lipolysis rate [3] [h⁻¹],"VOA, volume of distribution of octanoic acid [5] [L]",absorption rate constant (ka) [5] [h⁻¹],absorption rate of fatty acids [3] [h^1],ketogenesis rate [3] [h^1],SMILES,aqueous solubility [4] [µg/mL]
negligible amounts,1050,less than 0.5%,4.6,,,,,CCCCCCCC(=O)OCC(COC(=O)CCCCCCC)OC(=O)CCCCCCC [Tricaprilin],0.4
,,,,40.55 to 163.26,0.23 to 3.16,1.7,2.6,CCCCCCCC(=O)O [octanoic acid],
